Assay [1] deals with T1, Serine/threonine-protein kinase haspin (Homo sapiens) (UniProt Q8TF76).
T1 sequence (whole entry): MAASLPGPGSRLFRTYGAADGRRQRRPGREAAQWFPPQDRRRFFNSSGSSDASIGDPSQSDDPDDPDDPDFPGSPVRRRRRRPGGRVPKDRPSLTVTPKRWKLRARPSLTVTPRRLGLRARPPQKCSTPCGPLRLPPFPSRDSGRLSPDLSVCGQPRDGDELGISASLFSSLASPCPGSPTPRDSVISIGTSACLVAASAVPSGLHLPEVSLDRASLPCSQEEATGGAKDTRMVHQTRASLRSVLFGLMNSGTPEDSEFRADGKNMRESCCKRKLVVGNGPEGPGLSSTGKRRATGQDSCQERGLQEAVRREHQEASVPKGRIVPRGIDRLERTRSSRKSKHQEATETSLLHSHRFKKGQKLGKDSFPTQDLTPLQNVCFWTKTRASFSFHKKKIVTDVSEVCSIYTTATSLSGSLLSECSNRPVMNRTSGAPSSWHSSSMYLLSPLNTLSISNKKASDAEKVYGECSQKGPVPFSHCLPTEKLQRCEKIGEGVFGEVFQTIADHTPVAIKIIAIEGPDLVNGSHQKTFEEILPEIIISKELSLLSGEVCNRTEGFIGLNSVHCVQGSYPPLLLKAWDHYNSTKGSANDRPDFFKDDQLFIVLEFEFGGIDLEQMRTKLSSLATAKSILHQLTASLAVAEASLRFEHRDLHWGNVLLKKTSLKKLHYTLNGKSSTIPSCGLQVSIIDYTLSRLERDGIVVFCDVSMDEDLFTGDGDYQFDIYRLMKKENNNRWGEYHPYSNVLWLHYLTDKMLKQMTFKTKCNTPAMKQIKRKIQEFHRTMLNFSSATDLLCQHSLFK
Nature of the assay: Inhibition of human recombinant GST tagged full length Haspin catalytic domain expressed in Baculovirus expression system at 1 uM relative to control.

Assay [2] addresses T2, Dual specificity protein kinase CLK2 (Homo sapiens, UniProt P49760). The assay can be described thus: Inhibition of human recombinant GST-tagged Clk2 expressed in Baculovirus expression system at 0.25 uM using GRSRSRSRSRSRSRS peptide as substrate incubated for 15 mins in presence of ATP by phosphoimager analysis relative to control.
Target sequence in this assay (P49760 whole entry, looked up): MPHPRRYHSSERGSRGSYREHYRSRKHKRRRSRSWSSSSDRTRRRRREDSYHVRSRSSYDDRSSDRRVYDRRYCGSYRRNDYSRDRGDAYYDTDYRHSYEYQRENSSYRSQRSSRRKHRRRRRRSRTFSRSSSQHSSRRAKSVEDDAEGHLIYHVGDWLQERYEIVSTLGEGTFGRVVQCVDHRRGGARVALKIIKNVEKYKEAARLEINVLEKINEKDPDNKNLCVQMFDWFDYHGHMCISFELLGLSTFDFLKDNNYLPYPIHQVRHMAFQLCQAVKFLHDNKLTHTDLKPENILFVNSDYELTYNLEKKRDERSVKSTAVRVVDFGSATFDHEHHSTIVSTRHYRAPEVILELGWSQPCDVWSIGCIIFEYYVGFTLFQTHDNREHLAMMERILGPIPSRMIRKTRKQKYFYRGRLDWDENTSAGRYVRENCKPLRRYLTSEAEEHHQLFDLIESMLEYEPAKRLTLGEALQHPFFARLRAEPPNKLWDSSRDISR
Assay [3] concerns the target Serine/threonine-protein kinase pim-1 (Homo sapiens) (UniProt P11309). Nature of the assay: Inhibition of human recombinant His tagged full length Pim1 expressed in Baculovirus expression system at 1 uM relative to control.
In assay [4] the target is Casein kinase I isoform delta (Homo sapiens) (UniProt P48730). The assay can be described thus: Inhibition of human recombinant GST tagged full length CSNK1D expressed in Baculovirus expression system at 1 uM relative to control.
Casein kinase I isoform delta (Homo sapiens), sequence (P48730 whole entry, looked up, canonical isoform): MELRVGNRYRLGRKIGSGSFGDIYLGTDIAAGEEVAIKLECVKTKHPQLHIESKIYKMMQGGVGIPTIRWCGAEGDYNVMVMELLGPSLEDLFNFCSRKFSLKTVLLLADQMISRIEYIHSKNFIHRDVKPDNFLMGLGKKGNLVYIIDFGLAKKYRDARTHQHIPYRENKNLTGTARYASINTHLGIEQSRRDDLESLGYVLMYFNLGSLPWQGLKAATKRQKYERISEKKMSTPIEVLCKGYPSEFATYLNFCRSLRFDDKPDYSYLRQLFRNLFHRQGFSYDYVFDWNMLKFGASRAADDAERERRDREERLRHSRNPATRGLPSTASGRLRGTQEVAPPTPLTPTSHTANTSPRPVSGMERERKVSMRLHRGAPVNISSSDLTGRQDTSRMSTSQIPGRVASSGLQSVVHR
The target in assay [5] is SRSF protein kinase 1 (Homo sapiens) (UniProt Q96SB4). Nature of the assay: Inhibition of human recombinant His tagged full length SRPK1 expressed in Baculovirus expression system at 1 uM relative to control.
Assay [6] deals with Homeodomain-interacting protein kinase 1 (Homo sapiens) (UniProt Q86Z02). Nature of the assay: Inhibition of human recombinant GST tagged HIPK1 expressed in Baculovirus expression system at 1 uM relative to control.
Homeodomain-interacting protein kinase 1 (Homo sapiens), sequence (Q86Z02 whole entry, looked up): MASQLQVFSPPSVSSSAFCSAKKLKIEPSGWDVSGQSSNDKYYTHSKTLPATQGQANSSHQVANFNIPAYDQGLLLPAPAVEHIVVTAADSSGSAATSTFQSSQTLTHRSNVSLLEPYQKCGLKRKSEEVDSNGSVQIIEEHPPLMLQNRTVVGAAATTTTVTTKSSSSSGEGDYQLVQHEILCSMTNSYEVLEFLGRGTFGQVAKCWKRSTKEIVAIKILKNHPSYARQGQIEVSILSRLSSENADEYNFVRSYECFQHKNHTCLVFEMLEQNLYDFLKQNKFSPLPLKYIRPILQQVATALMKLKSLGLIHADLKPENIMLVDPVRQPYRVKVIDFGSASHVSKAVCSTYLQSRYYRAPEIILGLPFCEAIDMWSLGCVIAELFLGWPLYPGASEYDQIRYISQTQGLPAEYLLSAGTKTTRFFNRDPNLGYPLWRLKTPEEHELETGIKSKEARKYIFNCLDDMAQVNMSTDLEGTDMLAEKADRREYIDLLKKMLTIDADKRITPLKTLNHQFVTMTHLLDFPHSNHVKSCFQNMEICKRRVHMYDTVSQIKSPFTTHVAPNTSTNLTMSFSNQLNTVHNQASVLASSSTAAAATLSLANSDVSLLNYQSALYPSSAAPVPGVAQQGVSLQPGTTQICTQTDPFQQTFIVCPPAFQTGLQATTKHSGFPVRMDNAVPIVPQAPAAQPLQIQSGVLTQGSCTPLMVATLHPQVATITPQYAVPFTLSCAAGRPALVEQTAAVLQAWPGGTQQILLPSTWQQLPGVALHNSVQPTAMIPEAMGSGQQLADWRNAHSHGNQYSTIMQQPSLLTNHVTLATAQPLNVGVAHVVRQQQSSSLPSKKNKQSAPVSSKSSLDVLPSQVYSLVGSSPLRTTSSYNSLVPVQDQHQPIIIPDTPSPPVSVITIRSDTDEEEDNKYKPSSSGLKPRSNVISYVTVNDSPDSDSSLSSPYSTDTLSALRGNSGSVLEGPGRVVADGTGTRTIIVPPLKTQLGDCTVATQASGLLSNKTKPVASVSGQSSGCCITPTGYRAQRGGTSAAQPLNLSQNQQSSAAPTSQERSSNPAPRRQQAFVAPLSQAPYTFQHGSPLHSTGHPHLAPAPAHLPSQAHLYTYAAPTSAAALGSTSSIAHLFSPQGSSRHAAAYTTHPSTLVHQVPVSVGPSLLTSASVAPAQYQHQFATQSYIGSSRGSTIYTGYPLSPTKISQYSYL
The target in assay [7] is T2, Dual specificity protein kinase CLK2. The assay can be described thus: Inhibition of human recombinant GST-tagged Clk2 expressed in Baculovirus expression system using GRSRSRSRSRSRSRS peptide as substrate incubated for 15 mins in presence of ATP by phosphoimager analysis.
Target sequence in this assay (P49760 whole entry): as the sequence (P49760 whole entry, looked up) above
The target in assay [8] is T3, Dual specificity tyrosine-phosphorylation-regulated kinase 2 (Homo sapiens) (UniProt Q92630).
T3 sequence (whole entry): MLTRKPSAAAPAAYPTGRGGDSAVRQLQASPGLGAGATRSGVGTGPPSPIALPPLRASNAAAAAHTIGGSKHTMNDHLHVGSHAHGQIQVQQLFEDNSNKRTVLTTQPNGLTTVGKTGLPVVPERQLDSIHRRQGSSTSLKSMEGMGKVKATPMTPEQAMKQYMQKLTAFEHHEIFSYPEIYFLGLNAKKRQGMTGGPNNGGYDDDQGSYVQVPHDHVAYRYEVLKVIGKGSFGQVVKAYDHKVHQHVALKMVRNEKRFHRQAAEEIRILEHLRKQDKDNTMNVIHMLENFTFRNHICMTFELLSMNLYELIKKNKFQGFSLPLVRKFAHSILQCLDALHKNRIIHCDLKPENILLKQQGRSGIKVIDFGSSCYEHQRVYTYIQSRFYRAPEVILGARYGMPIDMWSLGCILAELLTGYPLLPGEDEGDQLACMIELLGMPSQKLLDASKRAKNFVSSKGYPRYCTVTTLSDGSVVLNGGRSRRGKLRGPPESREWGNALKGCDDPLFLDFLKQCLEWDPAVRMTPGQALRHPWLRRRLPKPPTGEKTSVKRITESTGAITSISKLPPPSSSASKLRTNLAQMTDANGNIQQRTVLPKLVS
The assay can be described thus: Inhibition of human recombinant GST tagged full length DYRK2 expressed in Escherichia coli expression system at 1 uM relative to control.

The target in assay [9] is BDNF/NT-3 growth factors receptor (Homo sapiens) (UniProt Q16620). The assay can be described thus: Inhibition of human recombinant His tagged full length TRKB expressed in Baculovirus expression system at 1 uM relative to control.
For assay [10], the target named is T4, Dual specificity protein kinase CLK1 (Homo sapiens, UniProt P49759). The assay can be described thus: Inhibition of human recombinant GST-tagged Clk1 (129 to 484 residues) expressed in Escherichia coli expression system at 100 nM using GRSRSRSRSRSRSRS peptide as substrate incubated for 15 mins in presence of ATP by phosphoimager analysis relative to control.
Target sequence in this assay (P49759 whole entry, looked up, the tested form may be a part): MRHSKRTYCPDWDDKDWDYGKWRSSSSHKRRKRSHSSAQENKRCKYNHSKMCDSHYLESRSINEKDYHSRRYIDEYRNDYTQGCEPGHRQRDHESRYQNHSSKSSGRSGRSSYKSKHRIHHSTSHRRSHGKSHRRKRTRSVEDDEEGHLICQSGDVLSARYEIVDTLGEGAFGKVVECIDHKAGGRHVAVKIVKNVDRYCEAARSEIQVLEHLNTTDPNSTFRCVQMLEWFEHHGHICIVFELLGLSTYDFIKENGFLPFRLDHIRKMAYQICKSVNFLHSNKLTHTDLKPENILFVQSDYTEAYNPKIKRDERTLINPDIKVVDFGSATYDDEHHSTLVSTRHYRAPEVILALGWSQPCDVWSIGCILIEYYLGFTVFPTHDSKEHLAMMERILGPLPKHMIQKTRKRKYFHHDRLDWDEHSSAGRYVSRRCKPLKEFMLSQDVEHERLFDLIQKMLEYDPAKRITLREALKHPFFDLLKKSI

The target in assay [11] is Dual specificity tyrosine-phosphorylation-regulated kinase 1A (Homo sapiens) (UniProt Q13627). Nature of the assay: Inhibition of human recombinant GST tagged full length DYRK1A expressed in Baculovirus expression system at 1 uM relative to control.
Assay [12] addresses T5, Dual specificity protein kinase CLK4 (Homo sapiens, UniProt Q9HAZ1). The assay can be described thus: Inhibition of human recombinant GST tagged full length CLK4 expressed in Baculovirus expression system at 1 uM.
Target sequence in this assay (Q9HAZ1 whole entry, the tested form may be a part): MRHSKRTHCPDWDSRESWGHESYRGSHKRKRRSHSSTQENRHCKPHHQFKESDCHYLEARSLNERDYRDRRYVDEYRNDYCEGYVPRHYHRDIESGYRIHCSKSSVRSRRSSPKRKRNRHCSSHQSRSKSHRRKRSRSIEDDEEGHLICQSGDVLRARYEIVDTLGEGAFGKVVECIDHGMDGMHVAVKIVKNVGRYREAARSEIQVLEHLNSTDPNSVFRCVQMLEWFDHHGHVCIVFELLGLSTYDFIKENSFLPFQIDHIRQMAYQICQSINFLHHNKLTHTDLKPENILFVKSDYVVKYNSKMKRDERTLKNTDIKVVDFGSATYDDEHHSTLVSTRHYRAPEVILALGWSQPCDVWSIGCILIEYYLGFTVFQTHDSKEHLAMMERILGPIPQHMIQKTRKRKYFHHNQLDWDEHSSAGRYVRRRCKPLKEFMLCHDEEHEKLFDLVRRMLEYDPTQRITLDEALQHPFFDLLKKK
The target of assay [13] is T4, Dual specificity protein kinase CLK1. Nature of the assay: Inhibition of human recombinant GST-tagged Clk1 (129 to 484 residues) expressed in Escherichia coli expression system using GRSRSRSRSRSRSRS peptide as substrate incubated for 15 mins in presence of ATP by phosphoimager analysis.
Target sequence in this assay (P49759 whole entry, the tested form may be a part): as the sequence (P49759 whole entry, looked up, the tested form may be a part) above
In the next assay the test system is T-24. Nature of the assay: Antiproliferative activity against human T24 cells assessed as cell growth inhibition measured after 3 days by MTT assay. It counts as functional. Conditions: T-24, 72 h, time 3 day. A general note: Formazan colour is commonly taken as a measure of viable cells.
For assay [14], the species on record is Homo sapiens. The assay can be described thus: Inhibition of CK2 (unknown origin) at 1 uM relative to control.
The species named for assay [15] is Homo sapiens. The assay can be described thus: Selectivity index, ratio of IC50 for human Clk2 to IC50 for human Clk1 by phosphoimager analysis.
Assay [16] addresses Cyclin-dependent kinase 5/CDK5 activator 1 (Homo sapiens) (UniProt Q00535+Q15078). Nature of the assay: Inhibition of human recombinant GST tagged/His-tagged full length CDK5/p25 expressed in Baculovirus expression system at 1 uM relative to control.
For assay [17], the target named is T5, Dual specificity protein kinase CLK4. The assay can be described thus: Inhibition of human recombinant GST tagged full length CLK4 expressed in Baculovirus expression system at 1 uM relative to control.
Target sequence in this assay (Q9HAZ1 whole entry, looked up, the tested form may be a part): as the sequence (Q9HAZ1 whole entry, the tested form may be a part) above
Assay [18] has as its target Dual specificity protein kinase CLK3 (Homo sapiens) (UniProt P49761). The assay can be described thus: Inhibition of human recombinant GST-tagged full length CLK3 expressed in Baculovirus expression system at 1 uM relative to control.

The structures appear in SMILES notation.

Consider 1 compound from ChEMBL document CHEMBL5113421, “Development of novel conformationally restricted selective Clk1/4 inhibitors through creating an intramolecular hydrogen bond involving an imide linker” (Eur J Med Chem, 2022).

Serine/threonine-protein kinase pim-1 (Homo sapiens), sequence (P11309 whole entry, looked up, canonical isoform): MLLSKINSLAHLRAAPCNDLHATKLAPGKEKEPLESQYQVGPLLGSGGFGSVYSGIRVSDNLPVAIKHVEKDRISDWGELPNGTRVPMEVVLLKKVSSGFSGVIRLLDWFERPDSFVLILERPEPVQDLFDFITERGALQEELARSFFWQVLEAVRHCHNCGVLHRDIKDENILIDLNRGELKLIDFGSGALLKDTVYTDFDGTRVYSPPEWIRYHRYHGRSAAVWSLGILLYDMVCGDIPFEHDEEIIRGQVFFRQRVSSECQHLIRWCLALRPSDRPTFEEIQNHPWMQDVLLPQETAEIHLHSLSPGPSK
Dual specificity protein kinase CLK3 (Homo sapiens), sequence (P49761 whole entry, looked up): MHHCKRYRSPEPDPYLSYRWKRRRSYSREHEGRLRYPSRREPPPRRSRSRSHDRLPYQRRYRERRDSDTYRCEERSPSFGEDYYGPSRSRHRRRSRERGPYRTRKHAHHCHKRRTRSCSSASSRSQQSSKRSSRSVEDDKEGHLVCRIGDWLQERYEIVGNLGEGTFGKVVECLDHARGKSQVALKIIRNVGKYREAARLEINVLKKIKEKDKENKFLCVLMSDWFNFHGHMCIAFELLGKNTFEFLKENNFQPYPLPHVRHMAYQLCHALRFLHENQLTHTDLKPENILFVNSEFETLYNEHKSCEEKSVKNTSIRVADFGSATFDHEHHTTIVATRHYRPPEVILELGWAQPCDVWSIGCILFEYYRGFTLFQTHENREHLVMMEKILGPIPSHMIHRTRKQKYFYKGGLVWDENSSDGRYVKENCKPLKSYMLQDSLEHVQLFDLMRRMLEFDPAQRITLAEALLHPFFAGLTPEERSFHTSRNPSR
Cyclin-dependent kinase 5/CDK5 activator 1 (Homo sapiens), sequence (Q00535 whole entry): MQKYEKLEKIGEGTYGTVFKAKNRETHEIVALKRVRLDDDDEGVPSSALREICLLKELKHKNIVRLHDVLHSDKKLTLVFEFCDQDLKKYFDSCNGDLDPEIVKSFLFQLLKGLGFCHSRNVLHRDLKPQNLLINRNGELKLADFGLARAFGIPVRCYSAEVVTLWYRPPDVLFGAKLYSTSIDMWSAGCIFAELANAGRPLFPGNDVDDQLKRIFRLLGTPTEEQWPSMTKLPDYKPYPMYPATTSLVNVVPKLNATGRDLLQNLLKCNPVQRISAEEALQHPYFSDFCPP
Cyclin-dependent kinase 5/CDK5 activator 1 (Homo sapiens), sequence (Q15078 99-307 partner limits assumed): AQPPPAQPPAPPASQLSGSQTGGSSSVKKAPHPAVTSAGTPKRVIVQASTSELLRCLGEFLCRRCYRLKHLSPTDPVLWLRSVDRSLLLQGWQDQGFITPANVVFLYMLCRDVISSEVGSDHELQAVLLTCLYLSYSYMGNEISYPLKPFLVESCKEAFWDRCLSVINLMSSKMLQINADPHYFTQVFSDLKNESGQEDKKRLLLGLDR

Consider `COc1ccc2sc(C(=O)NC(=O)c3cc(Cl)ccc3OC)cc2c1`, for which the inhibition in [1] stood at 24%; in assay [2], 19.9%; in assay [3] it was 31%; in [4], 7%; in [5], 8%; in assay [6], 1%. Moreover, the inhibition in assay [8] was 14%; in [9], 3%; in [10] it was 87.1%; in [11], 45%; in the assay filed under Homo sapiens [14], 4%; in assay [16] it was 3%. The inhibition in assay [17] was found to be 45%; in assay [18] it was 57%. For the same compound, the IC50 in assay [7] was 0.486 µM; in [12] it was 0.0066 µM; in assay [13], 0.0097 µM. Moreover, in the assay on T-24, the GI50 was 1.1 µM. The Ratio IC50 in the assay filed under Homo sapiens [15] came out at 50.

What is called inhibition is the share of the control response that was lost under treatment. In general, IC50 refers to the concentration at which inhibition is half-maximal. For orientation: GI50 means the concentration that inhibits growth by half.
